# Experimental data as given in patent US20240277890A1, “ANTIMICROBIAL ARTICLES COMPRISING POLYURETHANE” (Amicoat AS, priority 2021, published 2024).
# Read-outs that look alike come from different tables or passages of the source. Peptide text beside a SMILES is read from it. * marks the point of attachment. NHPhenethyl = c1ccc(CCN*)cc1
# How the values were obtained:
# [1] = test system: Methicillin resistant Staphylococcus epidermidis (MRSE) strain ATCC 27626
# [2] = test system: Methicillin resistant Staphylococcus aureus (MRSA) strain ATCC 33591
# trypsin = experiment: in vitro; format: in vitro ADME; settings: pH 8.6
# Procedure: Each peptide was dissolved in a 0.1 M NH4HCO3 buffer (pH 6.5) to yield a final peptide concentration of 1 mg/ml. A trypsin solution was prepared by dissolving 1 mg of trypsin in 50 ml 0.1 M NH4HCO3 buffer (pH 8.2). For the stability determination, 250 μl freshly made trypsin solution and 250 μl peptide solution were incubated in 2 ml of 0.1 M NH4HCO3 buffer (pH 8.6) at 37° C. on a rocking table. Aliquots of 0.5 ml were sampled at different time intervals, diluted with 0.5 ml water:acetonitrile (60:40 v/v) containing 1% TFA and analysed by RP-HPLC as described above. Samples without trypsin addition taken at 0 h and after 20 h at 37° C. were used as negative controls. Integration of the peak area at 254 nm for samples taken during the first 5 hours of the assay was used to generate the τ1/2.
# [3] = test system: Staphylococcus aureus, strain ATCC 25923
# [4] = test system: Eggerthella lenta - ATCC 43055; experiment: MIC microbroth dilution (CLSI), extra control strain; format: cell-based; parameters: unit not given here; settings: E. lenta ATCC 43055; SBB
# [5] = test system: Candida parapsilosis ATCC 22019; experiment: as above; format: cell-based; parameters: unit not given here; settings: C. parapsilosis ATCC 22019; RPMI 1640
# [6] = test system: Microsporum canis - G.R. Micro collection; settings: M. canis
# [7] = test system: Escherichia coli ATCC25922 - antibiotic-susceptible type strain; parameters: MIC (repeat control strain): unit not given beside the values; settings: E. coli ATCC 25922
# [8] = test system: Salmonella sp - antibiotic-susceptible clinical isolate; experiment: MIC microbroth dilution (CLSI); format: cell-based
# [9] = test system: Shigella sp - antibiotic-susceptible clinical isolate; experiment: MIC microbroth dilution (CLSI); format: cell-based
# [10] = test system: Haemophilus influenzae - ATCC 47247; experiment: MIC microbroth dilution (CLSI), extra control strain; parameters: unit not given beside the values; settings: H. influenzae ATCC 47247; plate type HTM
# [11] = test system: Salmonella sp - multi-drug resistant clinical isolate; experiment: MIC microbroth dilution (CLSI); format: cell-based
# [12] = test system: Staphylococcus aureus ATCC 29213 - antibiotic-susceptible control strain; parameters: MIC (repeat control strain): unit not given beside the values; settings: S. aureus ATCC 29213
# [13] = test system: Staphylococcus haemolyticus - antibiotic susceptible clinical isolate; settings: S. haemolyticus antibiotic susceptible isolate
# [14] = test system: Enterococcus faecalis - ATCC 29212 antibiotic-susceptible control strain; parameters: MIC (repeat control strain): unit not given beside the values; settings: E. faecalis ATCC 29212
# [15] = test system: Bacteroides fragilis - ATCC 25285; experiment: MIC microbroth dilution (CLSI), extra control strain; format: cell-based; parameters: unit not given here; settings: B. fragilis ATCC 25285; SBB
# [16] = test system: Pseudomonas aeruginosa ATCC27853 - antibiotic-susceptible type strain; parameters: MIC (repeat control strain): unit not given beside the values; settings: P. aeruginosa ATCC 27853
# [17] = test system: Clostridium difficile - antibiotic-susceptible clinical isolate; experiment: MIC microbroth dilution (CLSI); format: cell-based; parameters: unit not given beside the values; settings: C. difficile antibiotic-susceptible
# Procedure: Supplemented Brucella broth (SBB) was used for the anaerobic strains with an inoculum of approximately 10^6 CFU/mL. SBB is a broth consisting of 1% peptone, 0.5% ‘Lab-lemco’, 1% glucose and 0.5% sodium chloride supplemented with 5 μg/L haemin and 1 μg/L vitamin K (both obtained from Sigma Aldrich Ltd.) Yeast and filamentous fungal MIC were performed in MOPS buffered RPMI 1640 medium (MOPS buffer obtained from Sigma Aldrich Ltd., RPMI 1640 obtained from Invitrogen Ltd, Paisley, Scotland). The yeast inocula were in the range 7.5×10^2-4×10^3 CFU/mL and the filamentous fungi approximately 8×10^3-1×10^5 CFU/mL.
# [18] = test system: Staphylococcus aureus FDA486; experiment: Murine skin infection model, one day topical treatment; format: in vivo, mice; settings: cream or gel containing 2% (w/w) of compound; three topical treatments at three hourly intervals; compared to placebo
# Procedure: (§1) The skin of mice was infected with Staphylococcus aureus or Streptococcus pyogenes and subsequently given a total of three treatments at three hourly intervals. Three hours after the last treatment, skin biopsies were collected and the number of colony forming units (CFUs) present in the skin sample was determined. Results are shown in FIGS. 3, 4 and 5 expressed as the number of colony forming units per mouse.
# [19] = test system: Streptococcus pyogenes CS301; experiment: as above; format: in vivo, mice
# Procedure: as §1
# P. aeruginosa = settings: Table 5
# E. coli = settings: Table 5
# [20] = Staphylococcus aureus ATCC 25923
structure (smiles),measurement,setting,value
N=C(N)NCCC[C@H](NC(=O)[C@H](Cc1ccc(-c2ccc3ccccc3c2)cc1)NC(=O)[C@@H](N)CCCNC(=N)N)C(=O)NCCc1ccccc1 [Compound 1],MIC MRSE,[1]; MRSE ATCC 27626,<3 µM
same,MIC MRSA,[2]; MRSA ATCC 33591,<3 µM
same,half-life at 0.1 mg/ml,trypsin,> 24 h
same,MIC S. aureus,[3]; [20],4 µM
CC(C)(C)c1cc(C(C)(C)C)c2[nH]c(C(C)(C)C)c(CC(NC(=O)C(N)CCCNC(=N)N)C(=O)NC(CCCNC(=N)N)C(=O)NCCc3ccccc3)c2c1 (stereo not shown) [Compound 2],MIC (control strain),[4],32
same,MIC (control strain),[5],8
same,MIC,[6],8
same,MIC (repeat control strain),[7]; plate type Fresh MHB,8
same,MIC (repeat control strain),[7]; plate type Frozen MHB,8
same,MIC,[8],8
same,MIC,[9],8
same,MIC (control strain),[10],4
same,MIC,[11],8
same,MIC (repeat control strain),[12]; plate type Fresh MHB,2
same,MIC (repeat control strain),[12]; plate type Frozen MHB,4
same,MIC,[13],4
same,MIC (repeat control strain),[14]; plate type Fresh MHB,4
same,MIC (repeat control strain),[14]; plate type Frozen MHB,8
same,MIC (control strain),[15],64
same,MIC (repeat control strain),[16]; plate type Fresh MHB,8
same,MIC (repeat control strain),[16]; plate type Frozen MHB,8
same,MIC,[17],16
same,number of CFUs in skin biopsy,[18],the number of CFUs was reduced
same,number of CFUs in skin biopsy,"[19]; 1% or 2% gel, three topical treatments at three hourly intervals, compared to placebo gel and bactroban",more effective at reducing the number of CFUs than the placebo gel or the bactroban
same,"number of CFUs in skin biopsy, 2% gel versus 1% gel",[19]; gel containing 2% compared to gel containing 1%,more effective than the gel containing only 1% of compound 2
N=C(N)NCCC[C@H](NC(=O)[C@H](Cc1ccc(-c2cccc3ccccc23)cc1)NC(=O)[C@@H](N)CCCNC(=N)N)C(=O)NCCc1ccccc1 [Compound 3],MIC MRSE,[1]; MRSE ATCC 27626,3 µM
same,MIC MRSA,[2]; MRSA ATCC 33591,3 µM
N=C(N)NCCC[C@H](NC(=O)[C@H](Cc1ccc(-c2ccc(-c3ccccc3)cc2)cc1)NC(=O)[C@@H](N)CCCNC(=N)N)C(=O)NCCc1ccccc1 [Compound 5],MIC MRSE,[1]; MRSE ATCC 27626,3 µM
same,MIC MRSA,[2]; MRSA ATCC 33591,3 µM
same,MIC S. aureus,[3]; [20],5 µM
"N=C(N)NCCC[C@H](NC(=O)[C@H](Cc1c[nH]c2ccccc12)NC(=O)[C@@H](N)CCCNC(=N)N)C(=O)NCCc1ccccc1 [Compound 6, reference compound] (H-Arg-Trp-Arg-NHPhenethyl)",MIC MRSE,[1]; MRSE ATCC 27626,81 µM
same,MIC MRSA,[2]; MRSA ATCC 33591,97 µM
same,MIC S. aureus,[3]; [20],145 µM
CCCCNC(=O)[C@H](CCCNC(=N)N)NC(=O)[C@H](Cc1c(C(C)(C)C)[nH]c2c(C(C)(C)C)cc(C(C)(C)C)cc12)NC(=O)[C@@H](N)CCCNC(=N)N [Compound 9],MRSE (MIC),[1]; ATCC 27626,<2 µg/mL
same,S. pyogenes (MIC),S. pyogenes,2 µg/mL
same,C. albicans (MIC),C. albicans,10 µg/mL
same,MRSA (MIC),[2]; ATCC 33591,3 µg/mL
same,S. aureus (MIC),[3]; ATCC 25923,2 µg/mL
CCCNC(=O)[C@H](CCCNC(=N)N)NC(=O)[C@H](Cc1c(C(C)(C)C)[nH]c2c(C(C)(C)C)cc(C(C)(C)C)cc12)NC(=O)[C@@H](N)CCCNC(=N)N [Compound 10],MRSE (MIC),[1]; ATCC 27626,<2 µg/mL
same,S. pyogenes (MIC),S. pyogenes,2 µg/mL
same,C. albicans (MIC),C. albicans,10 µg/mL
same,MRSA (MIC),[2]; ATCC 33591,3 µg/mL
same,S. aureus (MIC),[3]; ATCC 25923,2 µg/mL
CCCCCCCCCCCCCCCCNC(=O)[C@H](CCCNC(=N)N)NC(=O)[C@H](Cc1c(C(C)(C)C)[nH]c2c(C(C)(C)C)cc(C(C)(C)C)cc12)NC(=O)[C@@H](N)CCCNC(=N)N [Compound 11],MRSE (MIC),[1]; MRSE ATCC 27626,4 µg/mL
same,S. pyogenes (MIC),S. pyogenes; Table 5,6 µg/mL
same,C. albicans (MIC),C. albicans; Table 5,>100 µg/mL
same,MRSA (MIC),[2]; MRSA ATCC 33591,4 µg/mL
same,P. aeruginosa (MIC),P. aeruginosa,>100 µg/mL
same,S. aureus (MIC),[3]; [20],5 µg/mL
same,E. coli (MIC),E. coli,>100 µg/mL
CC(C)CNC(=O)[C@H](CCCNC(=N)N)NC(=O)[C@H](Cc1c(C(C)(C)C)[nH]c2c(C(C)(C)C)cc(C(C)(C)C)cc12)NC(=O)[C@@H](N)CCCNC(=N)N [Compound 12],MRSE (MIC),[1]; ATCC 27626,2 µg/mL
same,S. pyogenes (MIC),S. pyogenes,2 µg/mL
same,C. albicans (MIC),C. albicans,10 µg/mL
same,MRSA (MIC),[2]; ATCC 33591,3 µg/mL
same,S. aureus (MIC),[3]; ATCC 25923,<2 µg/mL
CC(C)(C)c1cc(C(C)(C)C)c2[nH]c(C(C)(C)C)c(C[C@H](NC(=O)[C@@H](N)CCCNC(=N)N)C(=O)N[C@@H](CCCNC(=N)N)C(=O)NC3CCCCC3)c2c1 [Compound 13],MRSE (MIC),[1]; ATCC 27626,2 µg/mL
same,S. pyogenes (MIC),S. pyogenes,<2 µg/mL
same,C. albicans (MIC),C. albicans,10 µg/mL
same,MRSA (MIC),[2]; ATCC 33591,2 µg/mL
same,S. aureus (MIC),[3]; ATCC 25923,<2 µg/mL
CC(C)(C)c1cc(C(C)(C)C)c2[nH]c(C(C)(C)C)c(C[C@H](NC(=O)[C@@H](N)CCCNC(=N)N)C(=O)N[C@@H](CCCNC(=N)N)C(=O)NC3CCCC3)c2c1 [Compound 14],MRSE (MIC),[1]; ATCC 27626,<2 µg/mL
same,S. pyogenes (MIC),S. pyogenes,2 µg/mL
same,C. albicans (MIC),C. albicans,10 µg/mL
same,S. aureus (MIC),[3]; ATCC 25923,<2 µg/mL
